Source: patent US7192932B1, “Use of immunomodulating agents” (Lauras AS, priority 1997, dated 2007)
Where “and” joins values, the source holds several entries; their conditions need not be identical. Identical values can stand only once. Entries after “also recorded” stand apart in the source; their conditions may differ. Marks after values point to notes of the source that are not given here.

Key:
Assay type in all cases: cell-based, human
IL-2 = IL-2 levels in supernatants from anti-CD3 stimulated T lymphocytes (ELISA)
Experimental: After 20 h of culture, cellfree supernatants were harvested and stored at −80° C. until analysis. The IL-2 levels in supernatants were determined by an ELISA ([…], Minneapolis, Minn.).

[1] = test system: peripheral blood CD3+ T cells; assay: TCR/CD3 (anti-CD3) stimulated T cell proliferation, [3H]-thymidine incorporation
Experimental: (§1) Human peripheral blood CD3+ T cells were purified by negative selection from 50 ml of heparin-treated blood from normal healthy donors (Ullevaal University Hospital Blood Center, Oslo. Norway) or patients. Briefly, peripheral blood mononuclear cells were isolated by density gradient (Lymphoprep, NycoMed, Oslo, Norway) centrifugation followed by negative selection using monodisperse magnetic beads directly coated with antibodies to CD14 and CD19 and rat anti-mouse IgG beads coated with antibodies to CD56 and a magnet. Magnetic beads were all from Dynal (Oslo, Norway, cat. no. 111.12, 111.04, and 110.11. respectively) whereas anti-CD56 antibody was from Pharmingen (San Diego, Calif., cat. no. 31660.d). All steps were performed at 4° C.
as §1, with “Peripheral blood” for “Human peripheral blood”, “Center, Oslo,” for “Center, Oslo.”, “selection using,” for “selection using”, “and 110.11,” for “and 110.11.”, “Calif., eat.” for “Calif., cat.”
Proliferation assays were performed by incubation of 0.75×10^6 CM+ T cells/ml in a 100 μl volume in that-bottom 96-well microtiter plates. Activation was achieved by subsequent addition of monodisperse magnetic beads coated with sheep anti-mouse IgG (Dynal. cat. no. 110.02) at a cell:bead ratio of 1:1 followed by addition of antiCD3 (clone SpvT3b) at a final dilution of 1:125,000 for the experiments shown. The optimal concentration of antibody was titrated carefully in the initial setup and parallel experiments at several different dilutions of antibody was always performed. Proliferation was analyzed by incubating, cells for 72 hours during which [^3H]thymidine was included for the last 16 hours. Cells were washed and harvested onto filters using a Scatron harvester (Suffolk, UK) and subsequently analyzed by β-scintillation counting. cAMP analogs, when used, were added 30 min prior to activation by addition of […] antibodies. 8-CPT-cAMP was from Sigorna (St. Louis, Mo.) and Sp- and Rp-8-Br-cAMPS were from BioLog Life Science Company (Bremen, Germany) and were all dissolved to concentrations of 4 to 10 mM in PBS and concentrations calculated using the extinction coefficients given by the manufacturer.

IL-2 receptor = IL-2 receptor binding in anti-CD3 stimulated T cells (flow cytometry)
CD4+ T lymphocytes = assay: BrdU incorporation (DNA synthesis) by flow cytometry, CD4+ subset
Experimental: (§2) We next, by flow cytometry analysis of BrdU incorporation, examined anti-CD3 stimulated T lymphocyte DNA synthesis in the presence and absence of Rp-8-Br-cAMPS in subsets of CD4^+ and CD8^+ T lymphocytes in 8 CVI patients with impaired lymphocyte function and 7 controls. In CVI patients there was a significant increase in percent of BrdU^+ CD4^+ T lymphocytes when cAMP antagonist was added to cell culture [55.8 (40.7–77.0)% versus 69.6 (50.5–90.0)%, without and with antagonist, respectively, P<0.03]. In most patients the maximal increase was found at the highest concentration of Rp-8-Br-cAMPS (1000 μM).

CD8+ T lymphocytes = assay: BrdU incorporation (DNA synthesis) by flow cytometry, CD8+ subset; conditions: CVI patients and controls
Experimental: as §2

PBMC = assay: anti-CD3 stimulated proliferation of PBMC
Experimental: Whereas more than 100% increase in anti-CD3 induced lymphocyte proliferation was found in 7 of the CVI patients, 5 of the patients had less than 40% increase in proliferation when the cAMP antagonist was added to cells in vitro.

[2] = median in 7 CVI patients, 1000 μM
[3] = median in 8 healthy controls, most pronounced effect at 100 μM

Nc1ncnc2c1nc(Br)n2C1OC2COP(O)(=S)OC2C1O (stereo not drawn) [Rp-8-Br-cAMPS, Rp-8-Bromo-cAMP-phosphorothioate]
Effect on IL-2 levels in supernatants (IL-2; T lymphocytes from CVI patients): marked and concentration-dependent increase | Increase in IL-2 level by Rp-8-Br-cAMPS (fold increase) (IL-2; individual CVI patients #1-#7, 1000 μM, 20 h culture): 4.50 fold and 4.37 fold and 2.66 fold and 2.49 fold and 2.34 fold and 1.89 fold and 1.77 fold | Highest IL-2 level when adding Rp-8-Br-cAMPS (IL-2; individual CVI patients #1-#7, highest at 1000 μM, 20 h culture): 144 pg/mL and 284 pg/mL and 210 pg/mL and 249 pg/mL and 262 pg/mL and 246 pg/mL and 232 pg/mL | Highest IL-2 level when adding Rp-8-Br-cAMPS (IL-2; [2]): 246^+ pg/mL | Increase in IL-2 level by Rp-8-Br-cAMPS (fold increase) (IL-2; [2]): 2.50^+ fold | Highest IL-2 level when adding Rp-8-Br-cAMPS (IL-2; [3]): 799 pg/mL | Increase in IL-2 level by Rp-8-Br-cAMPS (fold increase) (IL-2; [3]): 1.28 fold | Proliferation level relative to levels in healthy controls ([1]; CVI patients' T cells with Rp-8-Br-cAMPS): ~25% | IL-2 concentration with enhancing effect comparable to that of cAMP antagonist ([1]; CVI patients, FIG. 7): ~15 ng/mL | Combined enhancing effects of Rp-8-Br-cAMPS and IL-2 on T lymphocyte proliferation ([1]; CVI patients, 1000 μM Rp-8-Br-cAMPS with IL-2): additive | Increase in proliferation by Rp-8-Br-cAMPS Fold increase compared to untreated ([1]; T cells from HIV+ asymptomatic patients, n = 8, median (25 to 75% range)): 1.50(1.29–1.73)^b fold | Increase in proliferation by Rp-8-Br-cAMPS Fold increase compared to untreated ([1]; T cells from HIV+ symptomatic patients, n = 10, median (25 to 75% range)): 1.62(1.48–2.00)^w fold | Increase in TCR/CD3-induced proliferation by antagonist alone ([1]; T cells from HIV-infected patients, at higher concentrations, FIG. 3D): more than 2 fold | Reversal of Sp-8-Br-cAMPS inhibition of proliferation by complementary antagonist ([1]; T cells from a HIV-infected patient, FIG. 3C): further increased the proliferation above the levels in untreated cells | Reversal of Sp-8-Br-cAMPS inhibition of proliferation by complementary antagonist ([1]; T cells from normal blood donors / healthy controls, increasing concentrations): almost completely reversed | Increase in proliferation by Rp-8-Br-cAMPS Fold increase compared to untreated ([1]; T cells from normal controls, n = 8, median (25 to 75% range)): 1.01(0.93–1.14) fold | Increase in proliferation by Rp-8-Br-cAMPS Fold increase compared to untreated ([1]; T cells from patients on triple combination therapy, n = 9, median (25 to 75% range)): 1.53(1.11–1.77)^o fold | Increase in proliferation by Rp-8-Br-cAMPS (fold increase) ([1]; T cells of individual CVI patients #1-#7): 1.73 fold and 2.10 fold and 1.87 fold and 1.34 fold and 1.37 fold and 2.45 fold and 3.67 fold | Increase in proliferation by Rp-8-Br-cAMPS Fold increase compared to untreated ([1]; T cells of individual HIV-infected patients #1-#18 without protease inhibitor therapy (Table 2a)): 2.81 fold and 2.02 fold and 2.73 fold and 1.48 fold and 1.77 fold and 1.96 fold and 1.5 fold and 1.79 fold and 1.74 fold and 1.3 fold and 1.49 fold and 1.43 fold and 1.46 fold and 1.67 fold and 1.6 fold and 1.27 fold and 1.39 fold and 1.16 fold | Increase in proliferation by Rp-8-Br-cAMPS Fold increase compared to untreated ([1]; T cells of individual patients #1-#9 receiving highly active antiretroviral therapy (Table 2b)): 2.79 fold and 2.65 fold and 1.77 fold (2×) and 1.53 fold and 1.04 fold and 1.52 fold and 0.98 fold and 1.11 fold | Increase in proliferation by Rp-8-Br-cAMPS (fold increase) ([1]; median in 7 CVI patients): 1.87^+ fold | Increase in proliferation by Rp-8-Br-cAMPS (fold increase) ([1]; median in 8 healthy controls): 1.01 fold | Effect of antagonist alone on stimulated proliferation ([1]; normal T cells / healthy controls): No increased T cell proliferation; also recorded: did not alter proliferation; also recorded: did not further enhance T cell proliferation | Increase in anti-CD3 stimulated proliferation ([1]; purified T cells, 3 of 7 CVI patients): > 100% | Effect on IL-2 receptor binding (IL-2 receptor; CD4+ lymphocytes from CVI patients): moderate but significant increase | Effect on IL-2 receptor binding (IL-2 receptor; cells from healthy controls): No such increase | percent of BrdU+ CD4+ T lymphocytes (CD4+ T lymphocytes; 8 CVI patients, with antagonist (without: 55.8 (40.7–77.0)%), maximal mostly at 1000 μM): 69.6 (50.5–90.0) % | Effect on DNA synthesis in CD4+ lymphocytes (CD4+ T lymphocytes; healthy controls): No effect | Change in percent of BrdU+ CD8+ cells (CD8+ T lymphocytes): no significant increase | Increase in anti-CD3 induced lymphocyte proliferation (PBMC; 5 of the 20 CVI patients): less than 40% | Increase in anti-CD3 induced lymphocyte proliferation (PBMC; 7 of the 20 CVI patients): more than 100% | Effect on anti-CD3 stimulated lymphocyte proliferation (PBMC; CVI group): significant and concentration-dependent improvement | Effect on anti-CD3 stimulated lymphocyte proliferation (PBMC; normal blood donors): did not significantly alter proliferation
